Common to all, as to assay type: in vitro ADME
Data set [1] addresses T1, CYP2C19 (Homo sapiens, UniProt P33261).
T1 construct: purchased Thermo Fisher Scientific
Put plainly: CYP inhibition, Vivid CYP450 screening kit. On the procedure: (§1) CYP inhibition by supinoxin was studied using Vivid® CYP450 screening kits (Thermo Fisher Scientific, San Jose, CA, USA) following the manufacturer’s instructions. Briefly, Vivid® substrates were dissolved in acetonitrile yielding a stock solution of 2 mM. Fluorescent assays were conducted at room temperature using Costar 96-well black plates (#3915; Corning Costar, Acton, MA, USA). Supinoxin stock solution was diluted in reaction buffer to yield a 2.5X concentration solution (final concentration of 10 µM); aliquots (40 μL) of the solution were added to the wells. Subsequently, aliquots (50 μL) of reaction mixture consisting of P450 Baculosomes® Reagent and the NADPH regeneration system were also added to the wells and preincubated for 10 min, at room temperature, after which 10 μL of 1 mM NADP^+ and Vivid® substrate mixture were added. After a 30-min incubation, fluorescence was detected in end-point mode using a Varioscan™ Flash multimode reader (Thermo Fisher Scientific, San Jose, CA, USA). Background fluorescence was obtained from wells not containing CYP isozymes and was withdrawn before further reaction. The excitation and emission wavelengths of 485 nm/530 nm for Vivid® Green substrates, and 409 nm/460 nm for Vivid® Blue substrates were used. The inhibition percentage of the compound was determined in comparison to the vehicle (i.e., DMSO)-treated control wells. For isozymes with > 50% inhibition at 10 μM, we determined the concentration-dependent inhibition of supinoxin to obtain the IC50 value at concentrations ranging from 0.59 to 10 μM.

The target of data set [2] is T2, CYP3A4 (Homo sapiens, UniProt P08684).
T2 construct: purchased Thermo Fisher Scientific
Put plainly: CYP inhibition, Vivid CYP450 screening kit. On the procedure:
as §1

The target of data set [3] is T3, CYP2D6 (Homo sapiens, UniProt P10635).
T3 construct: purchased Thermo Fisher Scientific
Briefly: CYP inhibition, Vivid CYP450 screening kit. On the procedure:
as §1

Data set [4] deals with T4, CYP1A2 (Homo sapiens, UniProt P05177).
T4 construct: purchased Thermo Fisher Scientific
T4 sequence (P05177 1-516): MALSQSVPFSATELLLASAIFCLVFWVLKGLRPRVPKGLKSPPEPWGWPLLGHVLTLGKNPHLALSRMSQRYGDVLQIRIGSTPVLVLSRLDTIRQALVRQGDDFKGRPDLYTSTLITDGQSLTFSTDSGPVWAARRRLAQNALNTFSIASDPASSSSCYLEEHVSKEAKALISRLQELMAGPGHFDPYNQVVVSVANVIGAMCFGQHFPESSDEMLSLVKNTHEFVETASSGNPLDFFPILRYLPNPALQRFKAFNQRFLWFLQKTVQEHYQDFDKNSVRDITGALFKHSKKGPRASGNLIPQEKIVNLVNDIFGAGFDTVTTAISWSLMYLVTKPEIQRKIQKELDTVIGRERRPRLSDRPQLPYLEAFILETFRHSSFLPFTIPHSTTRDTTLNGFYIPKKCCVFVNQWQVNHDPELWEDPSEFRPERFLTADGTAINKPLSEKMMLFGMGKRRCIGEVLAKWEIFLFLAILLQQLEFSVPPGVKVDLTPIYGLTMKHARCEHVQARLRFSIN
Put plainly: CYP inhibition, Vivid CYP450 screening kit. Here is the method: as §1

Data set [5] deals with T5, CYP2C9 (Homo sapiens, UniProt P11712).
T5 construct: purchased Thermo Fisher Scientific
Put plainly: CYP inhibition, Vivid CYP450 screening kit. Here is the method:
as §1

Data set [6] is described as follows: Metabolic stability in rat liver microsomes. Here is the method:
In these experiments, the metabolic stability of supinoxin in rat liver microsomes (BD Biosciences, San Jose, CA, USA) was determined. The microsomal reaction mixture comprised the follows: liver microsomal protein (final concentration of 0.5 mg protein per mL reaction mixture) and an NADPH regenerating solution (1.3 mM NADP+, 3.3 mM glucose-6-phosphate, 0.4 U/mL glucose-6-phosphate dehydrogenase, and 3.3 mM MgCl2) in a 100 mM potassium phosphate buffer with a pH of 7.4. After 5 min preincubation of the reaction mixture in a water bath at 37 °C, the reaction was initiated by the addition of a supinoxin solution to obtain a final concentration of 1 µM. Aliquots (50 µL) of the mixture were sampled at 5, 15, 30, and 60 min after the initiation of the reaction. The reaction was terminated by adding a stop solution (200 µL of ice-chilled acetonitrile) to the sample immediately after collection. After mixing by vortexing and centrifugation of the mixtures at 15,000× g for 5 min, an aliquot (150 µL) of the supernatant was analyzed by LC–MS/MS assay. In addition, the metabolic stability of supinoxin was determined in the presence of UDP glucuronic acid under similar reaction conditions, except that uridine 5′-diphosphoglucuronic acid was added instead of the NADPH regenerating solution. Finally, metabolic stability of supinoxin was tested in concentration range of 0.1–10 μM to confirm that the concentration used in the study (1 μM) was below the Km for the metabolic reaction. The amount of sample remaining was plotted against the reaction time to determine the metabolic rate constant of the reaction. Assuming that the substrate concentration was below the Km for the metabolic reaction, the intrinsic clearance was calculated as follows:(6) CLint= Aprotein×ke/fu,mic·Cprotein where Aprotein is the total amount of liver microsomal protein, ke is the metabolic rate constant of the reaction, fu,mic is the unbound fraction of the drug in the reaction mixture, and Cprotein is the microsomal protein concentration (mg/mL) in the reaction mixture. In this calculation, an Aprotein of 1790 mg of protein per kg for rats was used.
When necessary, the hepatic clearance of the compound was calculated using a well-stirred model as follows: (7) CLh= Q·CLint·fu,p/Q+CLint·fu,p/R where Q is the hepatic blood flow, fu,p is the unbound fraction of the drug in the plasma, and R is the blood-to-plasma partition ratio. In this calculation, a hepatic blood flow of 14.5 mL/min for 250 g rat was used, and the blood-to-plasma partition ratio was assumed to be 1.

Structures are written as SMILES.

T2 sequence (P08684 whole entry): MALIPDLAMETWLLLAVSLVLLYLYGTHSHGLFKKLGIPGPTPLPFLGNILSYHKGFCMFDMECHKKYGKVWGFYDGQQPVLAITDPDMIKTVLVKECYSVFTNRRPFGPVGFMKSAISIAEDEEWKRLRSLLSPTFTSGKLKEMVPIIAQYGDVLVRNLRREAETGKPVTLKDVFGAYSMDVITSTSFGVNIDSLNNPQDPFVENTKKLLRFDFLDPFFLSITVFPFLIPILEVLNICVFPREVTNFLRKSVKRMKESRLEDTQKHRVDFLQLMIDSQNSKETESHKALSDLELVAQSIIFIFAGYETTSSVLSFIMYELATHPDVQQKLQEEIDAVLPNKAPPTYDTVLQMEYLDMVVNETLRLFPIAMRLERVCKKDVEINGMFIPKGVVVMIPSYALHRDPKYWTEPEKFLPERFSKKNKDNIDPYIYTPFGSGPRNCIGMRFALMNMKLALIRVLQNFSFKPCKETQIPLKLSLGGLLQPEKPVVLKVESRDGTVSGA
T1 sequence (P33261 whole entry): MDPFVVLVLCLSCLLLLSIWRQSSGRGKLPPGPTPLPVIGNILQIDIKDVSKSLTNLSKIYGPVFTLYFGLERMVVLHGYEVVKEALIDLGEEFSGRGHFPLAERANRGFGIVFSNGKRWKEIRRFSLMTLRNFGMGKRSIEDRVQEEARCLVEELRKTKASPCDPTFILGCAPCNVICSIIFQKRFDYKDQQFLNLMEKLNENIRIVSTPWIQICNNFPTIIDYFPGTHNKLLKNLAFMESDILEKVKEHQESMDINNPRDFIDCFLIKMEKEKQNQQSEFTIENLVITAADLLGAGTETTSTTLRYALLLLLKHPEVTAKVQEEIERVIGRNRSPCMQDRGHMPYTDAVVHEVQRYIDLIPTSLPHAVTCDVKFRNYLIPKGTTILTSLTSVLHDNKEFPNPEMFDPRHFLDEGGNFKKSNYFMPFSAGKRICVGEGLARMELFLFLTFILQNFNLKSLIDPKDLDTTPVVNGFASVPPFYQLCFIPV
T5 sequence (P11712 whole entry): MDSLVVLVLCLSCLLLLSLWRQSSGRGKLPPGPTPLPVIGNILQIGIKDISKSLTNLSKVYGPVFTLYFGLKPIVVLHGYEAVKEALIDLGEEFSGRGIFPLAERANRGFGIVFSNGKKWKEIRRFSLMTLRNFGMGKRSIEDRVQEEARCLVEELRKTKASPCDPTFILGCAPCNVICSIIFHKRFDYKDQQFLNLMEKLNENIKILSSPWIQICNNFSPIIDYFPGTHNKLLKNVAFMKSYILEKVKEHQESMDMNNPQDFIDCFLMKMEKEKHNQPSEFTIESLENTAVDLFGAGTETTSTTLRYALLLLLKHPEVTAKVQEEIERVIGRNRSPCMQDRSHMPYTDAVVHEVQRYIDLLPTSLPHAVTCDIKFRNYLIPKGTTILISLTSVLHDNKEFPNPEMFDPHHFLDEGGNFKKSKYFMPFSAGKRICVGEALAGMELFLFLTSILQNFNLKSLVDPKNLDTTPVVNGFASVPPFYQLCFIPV
T3 sequence (P10635 whole entry): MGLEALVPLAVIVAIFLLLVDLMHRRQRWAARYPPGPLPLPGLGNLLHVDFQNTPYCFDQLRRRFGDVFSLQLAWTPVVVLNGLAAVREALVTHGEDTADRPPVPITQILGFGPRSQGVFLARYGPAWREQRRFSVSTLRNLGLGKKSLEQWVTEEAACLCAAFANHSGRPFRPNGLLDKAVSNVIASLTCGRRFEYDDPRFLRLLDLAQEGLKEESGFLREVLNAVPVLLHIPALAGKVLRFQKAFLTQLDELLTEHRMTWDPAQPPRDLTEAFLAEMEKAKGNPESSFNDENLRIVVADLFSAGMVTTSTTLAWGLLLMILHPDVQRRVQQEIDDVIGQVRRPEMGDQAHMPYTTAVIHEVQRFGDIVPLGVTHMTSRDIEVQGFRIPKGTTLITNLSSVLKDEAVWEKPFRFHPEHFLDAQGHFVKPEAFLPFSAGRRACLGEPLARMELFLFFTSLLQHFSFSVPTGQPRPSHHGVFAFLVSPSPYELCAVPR

As usually defined, the IC50 is the point on the concentration scale where inhibition reaches its midpoint. In general, inhibition refers to the change of the read-out against control, counted positive when it falls. A word on the half-life: it is the time needed for the level to fall by half in the phase considered. Regarding `COc1cc(OC)cc(N2CCN(C(=O)Nc3nc4cc(F)ccc4nc3OC)CC2)c1` [supinoxin, 1-(3,5-Dimethoxyphenyl)-4-[(6-Fluoro-2-Methoxyquinoxalin-3-yl) Aminocarbonyl] Piperazine], the IC50 in data set [1] (human recombinant CYP2C19) is over 10 µM; in data set [2] (human recombinant CYP3A4, 0.59 to 10 μM), 4.66 µM; in data set [3] (human recombinant CYP2D6), over 10 µM; in data set [4] (human recombinant CYP1A2), over 10 µM; in data set [5] (human recombinant CYP2C9), over 10 µM. The inhibition at 30 min, 10 µM is 35.7% in data set [1] (recombinant human CYP2C19 (P450 Baculosomes), probe Vivid substrate, human recombinant CYP2C19, 10 µM, read-out: inhibition compared to the vehicle control); over 50% in data set [2] (recombinant human CYP3A4 (P450 Baculosomes), probe Vivid substrate, human recombinant CYP3A4, 10 µM); under 0.01% in data set [3] (recombinant human CYP2D6 (P450 Baculosomes), probe Vivid substrate, human recombinant CYP2D6, 10 µM, read-out: inhibition compared to the vehicle control); 5.9% in data set [4] (recombinant human CYP1A2 (P450 Baculosomes), probe Vivid substrate, human recombinant CYP1A2, 10 µM, read-out: inhibition compared to the vehicle control); 16.2% in data set [5] (recombinant human CYP2C9 (P450 Baculosomes), probe Vivid substrate, human recombinant CYP2C9, 10 µM, read-out: inhibition compared to the vehicle control). The half-life at 1 µM in data set [6] (pH 7.4, rat liver microsomes, NADPH, 1 µM, read-out: NADPH-dependent metabolic half-life) is 17.1 min. For the same molecule, the CLint scaled at 1 µM in data set [6] (pH 7.4, rat liver microsomes, NADPH, 1 µM, read-out: intrinsic clearance (converted)) is 233 mL/min/kg. Moreover, in data set [6] (rat liver microsomes, NADPH, 1 µM), the “remaining amount at the end of the 60-min incubation” value is 12.7 ± 0.1 % of the initial. The “remaining amount in UDPGA-dependent metabolic stability study” value in data set [6] (rat liver microsomes, UDPGA, 1 µM, 60 min) is given as 92.2 ± 0.1%. In addition, in data set [6] (rat liver microsomes, concentration ranges of 0.1–1 μM), the half-life versus concentration entry was “remained constant”. Moreover, the “hepatic clearance as share of the total in vivo clearance” value in data set [6] (vs average clearance of 0.5–5 mg/kg intravenous administration) is given as 58.5%. The same molecule registered a hepatic clearance in data set [6] (well-stirred model, from rat liver microsomal incubation) of 7.38 mL/min/kg.

(Values after article PMC7998731, “Pharmacokinetic Characterization of Supinoxin and Its Physiologically Based Pharmacokinetic Modeling in Rats” (Pharmaceutics, 2021).)
